# Assays:
# [1] = healthy volunteers; cited from earlier work
# [2] = 39‐week study in monkeys; cited from earlier work
# [3] = Safety and tolerability (adverse events) in healthy male participants; assay type: in vivo, human; details: for deaths or serious adverse events: 6 healthy men
# Excerpt: Safety and tolerability measures included assessment of adverse events (AEs), serious adverse events (SAEs), clinical laboratory findings, vital signs (systolic and diastolic blood pressure and pulse rate), ECGs, and concurrent medications. An AE was defined as any untoward medical occurrence in a participant temporally associated with the use of an investigational product, whether or not considered related to the investigational product. […] The investigator or site staff was responsible for detecting, documenting, and reporting events that met the definition of an AE or SAE.
# [4] = ref GSK data on file; cited from earlier work
# [5] = Period 1: 6‐mg oral tablet + 50‐μg IV
smiles,measurement,setting,value
O=C(O)CNC(=O)C1C(=O)N(C2CCCCC2)C(=O)N(C2CCCCC2)C1=O [Daprodustat],renal clearance,[1],≈ 0.20 mL/min
same,doses at which gastric erosions were observed,[2],≥ 10 mg/kg/day
same,no observed adverse effect level,[2],3 mg/kg/day
same,participants reporting AEs,[3]; 3 of 6 participants,50%
same,Back pain,[3]; [5],1 (17) n (%)
same,Decreased appetite,[3]; [5],1 (17) n (%)
same,Headache,[3]; [5],1 (17) n (%)
same,Musculoskeletal chest pain,[3]; [5],0 n (%)
same,Myalgia,[3]; [5],1 (17) n (%)
same,Oropharyngeal pain,[3]; [5],0 n (%)
same,Back pain,[3]; Period 2: 25‐mg oral solution,0 n (%)
same,Decreased appetite,[3]; Period 2: 25‐mg oral solution,0 n (%)
same,Headache,[3]; Period 2: 25‐mg oral solution,1 (17) n (%)
same,Musculoskeletal chest pain,[3]; Period 2: 25‐mg oral solution,1 (17) n (%)
same,Myalgia,[3]; Period 2: 25‐mg oral solution,0 n (%)
same,Oropharyngeal pain,[3]; Period 2: 25‐mg oral solution,1 (17) n (%)
same,Back pain,[3]; Total,1 (17) n (%)
same,Decreased appetite,[3]; Total,1 (17) n (%)
same,Headache,[3]; Total,1 (17) n (%)
same,Musculoskeletal chest pain,[3]; Total,1 (17) n (%)
same,Myalgia,[3]; Total,1 (17) n (%)
same,Oropharyngeal pain,[3]; Total,1 (17) n (%)
same,deaths or serious adverse events,[3]; both treatment periods,no deaths or serious or significant adverse events reported
same,deaths or serious adverse events,"[3]; both treatment periods, listed as daprodustat",No deaths or other SAEs
same,total number of AEs reported,"[3]; both treatment periods, N = 6",7
same,tolerability,"[3]; oral tablet, microtracer IV or oral solution dose",generally well tolerated
same,protein binding,[4],> 99%

# Source: paper PMC9298194, “Clinical Pharmacokinetics of Daprodustat: Results of an Absorption, Distribution, and Excretion Study With Intravenous Microtracer and Concomitant Oral Doses for Bioavailability Determination” (Clinical Pharmacology in Drug Development, 2021)
